Data published in patent US8198273B2, “Compounds and methods for kinase modulation, and indications therefor” (Plexxikon Inc., priority 2009, dated 2012).

Legend:
B-Raf = B-Raf (Homo sapiens, UniProt P15056); test: B-Raf biochemical kinase inhibition (AlphaScreen, biotin-MEK1 substrate); conditions: 100 μM ATP
Procedure: (§1) Compounds to be tested are diluted in dimethyl sulfoxide to a concentration of 0.1 mM. These are serially diluted 15 μL into 30 μL of dimethyl sulfoxide seven times in 96 well plates for a total of 8 dilution points, and for each dilution point 1 μL is added to a well of an assay plate. […] The reaction is started with addition of 10 μL of 200 μM ATP (i.e. final 100 μM ATP). […] The plates are incubated for 3 hours at room temperature and read on Envision reader (Perkin Elmer). […] The signal vs. compound concentration is used to determine the IC50.

B-Raf V600E = B-Raf V600E (Homo sapiens, UniProt P15056, V600E); test: B-Raf V600E biochemical kinase inhibition (AlphaScreen, biotin-MEK1 substrate); conditions: 100 μM ATP
B-Raf V600E, sequence (P15056 whole entry V600E): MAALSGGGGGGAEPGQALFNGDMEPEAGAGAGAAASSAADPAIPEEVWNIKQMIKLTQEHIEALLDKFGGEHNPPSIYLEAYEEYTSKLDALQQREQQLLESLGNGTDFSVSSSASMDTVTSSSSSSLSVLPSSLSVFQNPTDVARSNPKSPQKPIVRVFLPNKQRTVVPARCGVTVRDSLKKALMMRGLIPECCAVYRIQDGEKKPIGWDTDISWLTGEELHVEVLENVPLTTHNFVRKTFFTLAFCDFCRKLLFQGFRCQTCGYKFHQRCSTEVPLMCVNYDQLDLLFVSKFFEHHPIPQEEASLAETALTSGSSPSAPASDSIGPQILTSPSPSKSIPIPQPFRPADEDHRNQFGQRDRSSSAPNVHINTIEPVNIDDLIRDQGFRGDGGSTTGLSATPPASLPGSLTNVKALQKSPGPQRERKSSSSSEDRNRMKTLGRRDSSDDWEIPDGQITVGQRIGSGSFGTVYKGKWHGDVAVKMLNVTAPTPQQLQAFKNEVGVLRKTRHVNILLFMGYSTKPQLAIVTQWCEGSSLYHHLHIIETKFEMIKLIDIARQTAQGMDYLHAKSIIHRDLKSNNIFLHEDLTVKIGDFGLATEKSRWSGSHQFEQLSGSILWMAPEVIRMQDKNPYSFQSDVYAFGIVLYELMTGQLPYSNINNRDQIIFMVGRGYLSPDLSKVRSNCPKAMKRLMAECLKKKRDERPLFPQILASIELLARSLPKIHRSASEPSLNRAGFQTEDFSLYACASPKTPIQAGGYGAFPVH
Procedure: as §1

[1] = test system: SW620 colon adenocarcinoma cells (wild-type B-RAF); test: SW620 cell growth inhibition (ATPlite); assay type: cell-based; conditions: Homo sapiens, SW-620, 72 h; SW620, 3 days incubation
Procedure: (§2) Compounds are assessed in a variety of cell based assays. For example human cell lines with B-Raf V600E mutation (A375 melanoma, SKMEL3 melanoma, and COL0205 colon adenocarcinoma), as well as tumorigenic cell lines with wild-type B-RAF (SW620 colon adenocarcinoma) or with Ras mutations (SKMEL2 melanoma and IPC298 melanoma). Similar assays may be used to assess additional tumorigenic cell lines with Ras mutations, including, but not limited to, M202, M207, M243, M244, M296, S117, HCT116, HCT15, DLD1, MiaPaCa, A549, NCI-H23, NCI-H460, HOP62, MDA-MB231, Hs-578T, HL60, MOLT-4, and CCRF-CEM.
(§3) On day 1, cells are counted, then centrifuged in a conical tube for 5 minutes at 1000 rpm. The supernatant is removed and cells are re-suspended as follows: • SW620 (ATCC catalog #CCL-27): resuspend in Leibovitz's L-15 medium, 2 mM L-glutamine, 10% fetal bovine serum to 6×10^4 cells/mL. • A375 (ATCC catalog #CRL-1619): resuspend in Dulbecco's modified Eagle's medium, 4 mM L-glutamine, 4.5 g/L D-glucose, 10% fetal bovine serum to 6×10^4 cells/mL. • COL0205 (ATCC catalog #CCL-222): resuspend in RPMI 1640, 2 mM L-glutamine, 1.5 g/L sodium bicarbonate, 4.5 g/L D-glucose, 10 mM HEPES, 1.0 mM sodium pyruvate, 10% fetal bovine serum to 6×10^4 cells/mL. • SKMEL2 (ATCC catalog #HTB-68): resuspend in Minimum Eagle essential medium, 2 mM L-glutamine, 1.5 g/L sodium bicarbonate, 0.1 mM non-essential amino acids, 1.0 mM sodium pyruvate, 10% fetal bovine serum to 6×10^4 cells/mL. • SKMEL3 (ATCC catalog #HTB-69): resuspend in McCoy's 5A medium, 1.5 mM L-glutamine, 15% fetal bovine serum to 6×10^4 cells/mL. • IPC298 (DSMZ catalog #ACC 251): resuspend in RPMI 1640, 2 mM L-glutamine, 10% fetal bovine serum to 6×10^4 cells/mL.
(§4) The cells are plated, 50 μL in each well of a 96-well dish (Corning 3610) and incubated at 37° C. in 5% CO2 overnight, cells plated to a final concentration of cells as follows:
(§5) On day 2, compound at a maximum concentration of 5 mM is serially diluted 1:3 for a total of 8 point titration with DMSO as a control. A 1 μL aliquot of each dilution point and control is added to 249 μL growth media and 50 μL is added to a well containing cells, providing 10 μM compound at the maximum concentration point. The cells are incubated for 3 days at 37° C. in 5% CO2.
(§6) On day 5, ATPlite 1 step Luminescence Assay System (Perkin Elmer #6016739) is brought to room temperature along with the cell cultures. ATPlite is added 25 μL to each well, shake for 2 minutes, and the cells are incubated at room temperature for 10 minutes, then luminescence is read on Safire reader. The measured luminescence correlates directly with cell number, such that the reading as a function of compound concentration is used to determine the IC50 value.
(§7) It is understood that the results of these assays may vary as assay conditions are varied. Inhibition levels determined under the conditions described herein represent a relative activity for the compounds tested under the specific conditions employed. The cell based assays are likely to show variability due to the complexity of the system and the sensitivity thereof to any changes in the assay conditions. […] Results for compounds that are tested and show substantially no inhibition below the highest tested concentration are represented as “-” in the tables below. In some instances, the compounds were not tested in all of the assays, or assay results were not valid, as indicated by NA in the tables below.

[2] = test system: A375 melanoma cells (B-Raf V600E); test: A375 cell growth inhibition (ATPlite); assay type: cell-based; conditions: Homo sapiens, A-375, 72 h; A375, 3 days incubation
Procedure: as §2, §3, §4, §5, §6, §7

[3] = test system: COLO205 colon adenocarcinoma cells (B-Raf V600E); test: COLO205 cell growth inhibition (ATPlite); assay type: cell-based; conditions: Homo sapiens, COLO 205, 72 h; COLO205, 3 days incubation
Procedure: as §2, §3, §4, §5, §6, §7

[4] = test system: SKMEL2 melanoma cells (Ras mutation); test: SKMEL2 cell growth inhibition (ATPlite); assay type: cell-based; conditions: Homo sapiens, SK-MEL-2, 72 h; SKMEL2, 3 days incubation
Procedure: as §2, §3, §4
SKMEL2: 2,000 cells per well.
as §5, §6, §7

A-Raf = biological target: T1, A-Raf (Homo sapiens, UniProt P10398); test: A-Raf biochemical kinase inhibition (AlphaScreen, biotin-MEK1 substrate); conditions: 100 μM ATP
T1 sequence (P10398 1-606): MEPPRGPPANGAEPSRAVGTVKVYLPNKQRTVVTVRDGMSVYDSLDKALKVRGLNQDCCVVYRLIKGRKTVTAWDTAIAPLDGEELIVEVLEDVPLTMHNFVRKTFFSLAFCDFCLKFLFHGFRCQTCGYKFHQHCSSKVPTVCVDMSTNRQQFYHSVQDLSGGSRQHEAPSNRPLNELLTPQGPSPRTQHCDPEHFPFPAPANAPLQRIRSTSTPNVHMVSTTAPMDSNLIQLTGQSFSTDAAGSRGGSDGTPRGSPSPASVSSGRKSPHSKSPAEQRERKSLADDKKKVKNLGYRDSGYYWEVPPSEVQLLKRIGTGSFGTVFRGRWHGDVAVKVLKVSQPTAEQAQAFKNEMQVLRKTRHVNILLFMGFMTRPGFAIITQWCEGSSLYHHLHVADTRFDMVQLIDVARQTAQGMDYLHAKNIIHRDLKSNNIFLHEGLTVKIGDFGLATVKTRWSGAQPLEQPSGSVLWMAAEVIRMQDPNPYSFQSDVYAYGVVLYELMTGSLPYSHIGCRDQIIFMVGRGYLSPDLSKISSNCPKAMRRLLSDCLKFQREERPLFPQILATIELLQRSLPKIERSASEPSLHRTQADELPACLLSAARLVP
Procedure: as §1

c-Raf-1 = c-Raf-1 (Homo sapiens, UniProt P04049); test: c-Raf-1 biochemical kinase inhibition (AlphaScreen, biotin-MEK1 substrate); conditions: 100 μM ATP
c-Raf-1, sequence (P04049 whole entry): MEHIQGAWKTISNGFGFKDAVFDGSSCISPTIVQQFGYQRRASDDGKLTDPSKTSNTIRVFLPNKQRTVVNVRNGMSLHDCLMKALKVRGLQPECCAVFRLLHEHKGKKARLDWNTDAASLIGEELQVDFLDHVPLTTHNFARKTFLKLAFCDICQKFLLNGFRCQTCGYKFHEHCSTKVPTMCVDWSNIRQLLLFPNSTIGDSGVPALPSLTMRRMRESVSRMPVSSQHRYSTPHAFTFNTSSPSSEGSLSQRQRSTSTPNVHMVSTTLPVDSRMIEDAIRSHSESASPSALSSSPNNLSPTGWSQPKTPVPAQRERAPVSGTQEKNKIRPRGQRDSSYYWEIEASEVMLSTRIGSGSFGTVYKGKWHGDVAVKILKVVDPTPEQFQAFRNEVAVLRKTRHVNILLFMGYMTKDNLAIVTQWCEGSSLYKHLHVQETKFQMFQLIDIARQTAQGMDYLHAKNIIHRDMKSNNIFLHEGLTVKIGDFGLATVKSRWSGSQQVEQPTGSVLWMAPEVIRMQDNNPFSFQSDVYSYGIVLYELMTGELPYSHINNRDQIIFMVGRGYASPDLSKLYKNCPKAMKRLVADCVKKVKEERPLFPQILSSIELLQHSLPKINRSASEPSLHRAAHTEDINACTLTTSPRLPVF
Procedure: as §1

B-Raf, sequence (P15056 whole entry): as the sequence (P15056 whole entry V600E) above, with E600V counted along it

SMILES	IC50 (B-Raf) [µM]	IC50 (B-Raf V600E) [µM]	IC50 [1] [µM]	IC50 [2] [µM]	IC50 [3] [µM]	IC50 [4] [µM]	IC50 (A-Raf) [µM]	IC50 (c-Raf-1) [µM]
CC(C)CS(=O)(=O)Nc1ccc(F)c(C(=O)c2c[nH]c3ncc(-c4cnn(C)c4)cc23)c1F [P-2299, 2-Methyl-propane-1-sulfonic acid {2,4-difluoro-3-[5-(1-methyl-1H-pyrazol-4-yl)-1H-pyrrolo[2,3-b]pyridine-3-carbonyl]-phenyl}-amide]	< 0.01	< 0.01	> 10	< 1	< 1	> 10		
CCCS(=O)(=O)Nc1ccc(F)c(C(=O)c2c[nH]c3ncc(-c4ccc(NC(C)=O)cc4)cc23)c1F [P-2161, N-(4-{3-[2,6-Difluoro-3-(propane-1-sulfonylamino)-benzoyl]-1H-pyrrolo[2,3-b]pyridin-5-yl}-phenyl)-acetamide]		< 0.01	> 10	< 1	< 1	< 10		
CCCS(=O)(=O)Nc1ccc(F)c(C(=O)c2c[nH]c3ncc(-c4ccc(C(N)=O)nc4)cc23)c1F [P-2220, 5-{3-[2,6-Difluoro-3-(propane-1-sulfonylamino)-benzoyl]-1H-pyrrolo[2,3-b]pyridin-5-yl}-pyridine-2-carboxylic acid amide]	< 0.1	< 0.1	> 10	< 1	< 1		< 0.01	< 0.1

Results, then the compound that gave them:

IC50 (B-Raf) [µM]	IC50 (B-Raf V600E) [µM]	IC50 [1] [µM]	IC50 [2] [µM]	IC50 [3] [µM]	IC50 [4] [µM]	IC50 (A-Raf) [µM]	IC50 (c-Raf-1) [µM]	SMILES
< 0.01	< 0.01	> 10	< 5	< 5	> 10	< 0.01	< 0.01	CCCS(=O)(=O)Nc1ccc(F)c(C(=O)c2c[nH]c3ncc(-c4ccc(O)nc4)cc23)c1F [P-2234, Propane-1-sulfonic acid {2,4-difluoro-3-[5-(6-hydroxy-pyridin-3-yl)-1H-pyrrolo[2,3-b]pyridine-3-carbonyl]-phenyl}-amide]
< 0.1	< 0.1	< 10	< 1	< 1	< 5			CCCS(=O)(=O)Nc1ccc(F)c(C(=O)c2c[nH]c3ncc(-c4ccc(C)nc4F)cc23)c1F [P-2172, Propane-1-sulfonic acid {2,4-difluoro-3-[5-(2-fluoro-6-methyl-pyridin-3-yl)-1H-pyrrolo[2,3-b]pyridine-3-carbonyl]-phenyl}-amide]
